# From patent publication US20210196789A1, “HEPARIN-BINDING DOMAIN OF IGFBP-2 IN THE TREATMENT OF METABOLIC DISORDERS” (AMOLYT PHARMA, priority 2018, published 2021)
# “Also recorded” adds a separate entry of the source. No end group written: not given here. *: point of attachment. Stearoyl = CCCCCCCCCCCCCCCCCC(=O)*
# Columns and labels:
# [1] = test system: 3T3-LI adipocytes; assay: [3H]-2-deoxyglucose uptake by fully differentiated 3T3-LI adipocytes; assay type: cell-based, mouse; conditions: 3 μg/ml for 24 hours
# Protocol: 3T3-LI cells are a mouse fibroblast cell line which when cultured under specific conditions, differentiate into adipocytes.
# Differentiation of 3T3-LI cells into adipocytes was achieved using the following protocol. 3T3-L1 cells were seeded in 24-well plates and cultured in 3T3-L1 maintenance medium (DMEM containing 10% fetal bovine serum, 4 mM L-glutamine 1 mM, sodium pyruvate) until the cells were 100% confluent. The cells were then fed with 3T3-L1 maintenance medium and cultured for a further 48 h. To initiate differentiation into adipocytes, the medium was changed to Differentiation medium 1 (DMEM containing 10% fetal bovine serum, 4 mM L-glutamine, 1 mM sodium pyruvate, 0.5 mM IBMX, […]), and cultured for a further 2 days. The medium was then changed to Differentiation medium 2 (DMEM containing 10% fetal bovine serum, 4 mM L-glutamine, 1 mM sodium pyruvate, 1 mg/ml insulin), and cultured for a further 2 days. The medium was then changed to Adipocyte Maintenance medium (DMEM containing 10% fetal bovine serum, 4 mM L-glutamine, 1 mM sodium pyruvate), and cultured for a further 7 days. During this time, the medium was changed every other day. The now fully differentiated adipocytes were utilized for glucose uptake experiments (day 11 from initiation of differentiation). Stock solutions of the HBD1 peptides to be tested were prepared by dilution with 0.9% NaCl solution under sterile conditions in a laminar flow cabinet to a concentration of 1 mg/ml, based on net peptide content. The solutions were homogenized by gentle inversion. Test items were prepared from the stock solutions, and remaining stock solution was aliquoted and stored at −20° C. and used without repeated freeze-thaw cycles.
# Glucose uptake experiments were carried our using the following protocol. Prior to beginning the experiment, 100 ml of Krebs Ringer bicarbonate buffer (KRBB)(25 mM Hepes pH 7.4, 118 mM NaCl, 5 mM NaHCO3, 4.7 mM KCl, 1.2 mM KH2PO4, 1.2 mM MgSO4, 2.5 mM CaCl2, 0.2% BSA—Filtered using a 0.2 μm filter) and 100 ml of Incubation medium (DMEM containing 4 mM L-glutamine, 1 mM sodium pyruvate, 1% penicillin streptomycin, 0.2% BSA—Filtered using a 0.2 μm filter) were pre-warmed to 37° C., and 500 ml of KRBB was chilled on ice. Stock solutions of test compounds were diluted to 3 μg/ml final concentrations in pre-warmed Incubation medium and in pre-warmed KRBB. Insulin (positive control), previously diluted 1:1000 in sterile 0.9% NaCl, was further diluted in 10 ml of both medium and buffer to a final concentration of 1 nM. All traces of the medium were carefully removed from the cells using a fine tip. 1 ml of incubation medium containing study compounds or vehicle was added to the appropriate wells. No insulin was added at this time. […]
# [2] = test system: B6.V-Lepob/J mice (ob/ob); assay: Intraperitoneal glucose tolerance test in ob/ob mice after 15 days of twice daily treatment; assay type: in vivo, mouse; conditions: 3 mg/kg s.c. twice daily for 15 days, 45 min after 1 g/kg i.p. glucose, vs vehicle
# Protocol: After being acclimatized 7 days to the laboratory conditions, nine-week-old male B6.V-Lepob/J. mice (Charles River) were subcutaneously administered with vehicle (NaCl 0.9%) or with a peptide as set forth in SEQ ID NO: 73 (C18:0-HLGLEEPKK) at 3 mg/kg (n=5 animals for each group) twice daily for 15 days. On day 15, fasted (overnight) mice were injected intraperitoneally with glucose at 1 g/kg. Plasma blood glucose (expressed as mmol/L) was recorded at 45 minutes post glucose injection.
# [3] = test system: glucose telemetered ob/ob mice; assay: Basal blood glucose and IPGTT in glucose-telemetered ob/ob mice, 28 days of twice daily treatment; assay type: in vivo, mouse; conditions: for glucose intolerance: glucose telemetered ob/ob mice, 1 and 3 mg/kg s.c. twice daily, 27-28 days, vs vehicle
# Protocol: To further assess the effects of HBD1 peptides on glucose and insulin metabolisms, basal blood glucose and glucose response to an intraperitoneal glucose tolerance test (IPGTT) were assessed in glucose-telemetered obese ob/ob mice after twice daily administration of HBD peptides for 28 consecutive days. Implantation of glucose telemetry device (HD-XG, Data Science International) was carried out according to known protocols.
# A dose of HBD peptide fragment of SEQ ID NO: 73 (C18:0-HLGLEEPKK) was administered twice daily at 8-hour±1 hour interval between the two daily administrations. 24 V-Lepob/J (Ob/Ob) male mice (The Jackson Laboratory, Farmington, Conn. USA) were administered subcutaneously with vehicle (NaCl 0.9%) (Control group) or with the peptide at 1 and 3 mg/kg (Test groups) (n=5-8 animals for each group) twice daily for 28 days. The first day of dosing was designated as Day 1. Bolus injection was carried out using a sterile syringe and the needle was introduced subcutaneously, 2 to 4 injection sites were used in rotation. The hair of the animals on the injection area was clipped prior to the first injection and then as necessary during the treatment period. The volume administered was 5 mL/kg/administration. Individual dose volumes were calculated using the latest body weight. On day 27, 16-hour mean blood glucose levels were assessed in normal fed conditions. On day 28, fasted (4 hours) mice were injected intraperitoneally with glucose at 1 g/kg. Plasma blood glucose profile (expressed as mg/dL) was recorded every minute up to 3-hour post glucose injection.
# Intraperitoneal glucose tolerance test (IPGTT)—On the morning of the IGPTT day (day 28), 2-hour fasted animals were treated with vehicle or with the HBD fragment. Glucose solution was administered 2 hours±15 minutes post-dosing (vehicle or a peptide as set forth in SEQ ID NO: 73 (C18:0-HLGLEEPKK). Blood glucose was monitored from 10 minutes before (fasting condition) to 3-hour post-glucose challenge. Food was re-introduced 4 hours post-glucose challenge. The second treatment of the day (the HBD fragment or vehicle) was performed 2 hours after food re-introduction.
# [4] = test system: C2C12 mouse skeletal muscle myotubes; assay: 3H-2-deoxyglucose uptake by fully differentiated C2C12 myotubes; assay type: cell-based
# Protocol: The studies were performed using cultured, fully differentiated C2C12 mouse skeletal muscle myotubes. The cells were prepared by growing C2C12 cells to confluent density in DMEM with 25 mM glucose and 10% fetal bovine serum in 24 well plates. At this time, the medium was changed to differentiation medium (DMEM with 25 mM glucose and 2% horse serum) for 6 days with medium changed every third day. The various treatments were diluted in serum-free medium and, after washing the cells with serum-free medium, were added to the cells and incubated for 2 hours or alternative times, depending on the treatment. At the end of incubation period, the media was removed and 1.0 ml of glucose-free Krebs ringer bicarbonate buffer (pH 7.4), containing the same treatments, was added and incubation continued for 10 minutes. At the end of the 10 min incubation period, ^3H-2-deoxyglucose ([…]) (specific activity=8 Ci/mmole) was added directly to all wells, and the incubation continued for an additional 10 min. The wells were then rinsed three times with ice cold phosphate buffered saline, the cells were extracted with 0.5 N NaOH, and the ^3H-2-deoxyglucose content of the cell lysate quantitated by scintillation counting.
# [5] = test system: Akt; assay: Akt phosphorylation (pS473 immunoblot) in C2C12 myotubes; assay type: cell-based, mouse; conditions: 8 hours incubation (FIG. 6)
# Protocol: (§1) For signaling studies the cells were prepared the same way except 6-well plates were used. After 6 days incubation in differentiating medium, the cells were washed with serum-free medium. The various treatments were then added in serum free medium containing 0.1% BSA. HBD1 peptides were added and incubated for 8 hours. When utilizing IGF-I, incubation was for 15 minutes after IGF-1 addition. Following incubation the cells were lysed in RIPA buffer and sonicated. The cell lysate was centrifuged and the supernatant analyzed for either Akt or AMPK by SDS PAGE using a 10% gel followed by immunoblotting with the appropriate antibody.
# To examine the intracellular transduction pathways utilized by the HBD1 peptides, following treatment with HBD1 peptide SEQ ID NO: 73 (C18:0-HLGLEEPKK), cell lysate proteins were separated by SDS PAGE and immunoblotted with anti-Akt pS473 antibodies.
# [6] = test system: AMPK; assay: AMPK phosphorylation (pT172 immunoblot) in C2C12 myotubes; assay type: cell-based, mouse
# Protocol: as §1
# To examine further the intracellular transduction pathways utilized by the HBD1 peptides, following treatment with HBD1 peptide SEQ ID NO: 73 (C18:0-HLGLEEPKK), cell lysate proteins, were separated by SDS PAGE and immunoblotted with anti-pAMPK T172.
# [7] = test system: mice; conditions: mice (Xi, 2013); cited from earlier work
# [8] = listed as acylated HBD1 (3-11) fragment
compound,measurement,setting,value
HLGLEEPKK [SEQ ID NO: 10],glucose uptake by 3T3-LI adipocytes,[1],stimulated increased glucose uptake
HHLGLEEPKK [SEQ ID NO: 16],glucose uptake by 3T3-LI adipocytes,[1],stimulated increased glucose uptake
C18:0-HLGLEEPKK (Stearoyl-HLGLEEPKK) [SEQ ID NO: 73],plasma glucose levels in response to the IP glucose tolerance test,[2],reduced the plasma glucose levels
same,plasma glucose levels in response to the IP glucose tolerance test,[2]; [8],improves glucose intolerance
same,effect on fasting glucose and glucose excursion at the high dose,"[3]; 3 mg/kg, after 4 weeks",marked effect
same,glucose excursion following IPGTT,"[3]; after 4 weeks of administration, 3-hour profile after 1 g/kg i.p. glucose",decreased
same,fasting glucose levels,"[3]; after 4 weeks of administration, 10 min prior to IPGTT",decreased fasting glucose levels
same,16-hour average blood glucose levels,"[3]; day 27, normal fed conditions",markedly decrease 16-hour average blood glucose levels
same,glucose intolerance,[3],improved glucose intolerance in a dose-dependent manner
same,glucose intolerance,[3]; [8],improves glucose intolerance
same,glucose uptake by 3T3-LI adipocytes,[1],stimulated increased glucose uptake
same,"glucose uptake by C2C12 myotubes with insulin, separate experiment",[4]; 1.5 μM together with insulin (FIG. 8),act additively with insulin; also recorded: in an additive manner with insulin
same,"glucose uptake by C2C12 myotubes, separate experiment","[4]; 1.5 μM, alone (FIG. 8)",increased glucose uptake
same,glucose uptake by C2C12 myotubes,"[4]; 0.8, 1.5, 2.3 μM, 1.5 μM for 2, 4, 16 hours, vs vehicle-treated controls (FIGS. 5A-5B)",stimulated increased glucose uptake as compared with vehicle-treated controls in both a dose- and time-dependent manner; also recorded: dose-dependent (FIG. 5A) and time-dependent (FIG. 5B) increases in glucose uptake
same,glucose uptake by C2C12 myotubes in combination with insulin,[4]; in combination with insulin (FIG. 5C),additive increase in glucose uptake
same,phosphorylated Akt,[5],dose-related increase in phosphorylated Akt; also recorded: dose-dependent phosphorylation (activation) of the Akt pathway
same,phosphorylated AMPK,"[6]; C2C12 myotubes, 8 hours incubation (FIG. 7)",dose-dependent increase in phosphorylated AMPK; also recorded: dose-dependent phosphorylation (activation) of the AMPK pathway
KHHLGLEEPKKLR [SEQ ID NO: 1],glucose uptake by 3T3-LI adipocytes,[1],stimulated increased glucose uptake
same,body weight and fat accumulation,[7],decrease body weight and fat accumulation
same,glucose tolerance,[7],no effect on glucose tolerance
"c1cc(-c2cnn3cc(-c4ccc(OCCN5CCCCC5)cc4)cnc23)ccn1 [Compound C, reference compound]",effect on SEQ ID NO: 73-stimulated glucose uptake,"[4]; C2C12 myotubes, SEQ ID NO: 73 alone or together with insulin (FIG. 8)",completely abolished; also recorded: prevented
same,effect on SEQ ID NO: 73-induced AMPK phosphorylation,[6]; C2C12 myotubes treated with SEQ ID NO: 73 (FIG. 7),completely abolished; also recorded: prevented
